Assay results as given in patent US6337325B1, “Combined preparation for the therapy of immune diseases” (Hoechst Aktiengesellschaft, priority 1994, dated 2002).
Where two headings read alike, the source gives them in different places.

How the values were obtained:
[1] = test system: PHA-induced release of TNFα from peripheral blood mononuclear cells; assay: Inhibition of PHA-induced release of TNFα from PBMC (L929 cytotoxicity read-out); format: cell-based; conditions: Homo sapiens
Protocol: (§1) For all the in vitro tests, peripheral blood mononuclear cells (PBMC) were obtained from the blood of healthy donors by density gradient centrifugation in Ficoll-Hypaque (Pharmacia, Uppsala). This isolation step separated monocytes and lymphocytes from the other blood constituents. Further working-up of this PBMC fraction was carried out in accordance Ad with the requirements of the test preparations described below.
(§2) The resulting PBMC were incubated on microtiter plates together with phythemagglutinin (PHA, 5 μg/ml). […] Incubation was carried out at 37° C. in 5% CO2 with protection from the light. After 20 hours (h) (TNFα determination), 24 h (IL-2 determination) or 120 h (IFNγ determination), the cell supernatants were tested for cytokine release. TNFα was determined via its cytotoxicity to L929 cells, IL-2 was quantified via the proliferation of CTL-L6 cells and IFNγ was determined using a sandwich ELISA.
The following test examined the dependence of the inhibition of PHA-induced cytokine formation on the type of so-called “calcium antagonist” added.

[2] = test system: patient with pronounced psoriasis; assay: Topical application to a single patient with pronounced psoriasis, subjective symptom scores; format: in vivo, human; conditions: after a 6-week application
Protocol: The effect of the topical application of a combination according to the invention to a single patient with pronounced psoriasis was studied in a parallel comparison. For this purpose the test substances pentoxifylline and diltiazem, dissolved in 30 ml of polypropylene glycol/ethanol/water (1:1:1. v/v), were incorporated, individually or together, in a final concentration of 2% (pentoxifylline) or 1% (diltiazem), into a commercially available creamy skin care product (Nivea lotion), ultimately giving the following 4 different formulations:
A) lotion without test substance (=vehicle control)
B) lotion with 2% of pentoxifylline
C) lotion with 1% of diltiazem
D) lotion with 2% of pentoxifylline+1% of diltiazem
Twice a day for 6 weeks, these 4 formulations were applied locally, with rubbing, to areas of skin on the patient's trunk which were affected by pronounced symptoms of psoriasis and had previously been precisely defined, particular care being taken to ensure that the same formulation was always applied to the same area of skin. The therapeutic result was monitored visually and evaluated by means of the following subjective scores: […]

[3] = test system: PHA-induced release of IL-2 from peripheral blood mononuclear cells; assay: Inhibition of PHA-induced release of IL-2 from PBMC (CTL-L6 proliferation read-out); format: cell-based; conditions: Homo sapiens
Protocol: as §1, §2

[4] = test system: PHA-induced release of IFNγ from peripheral blood mononuclear cells; assay: Inhibition of PHA-induced release of IFNγ from PBMC (sandwich ELISA); format: cell-based; conditions: Homo sapiens, PHA 5 μg/ml, 120 h
Protocol: as §1, §2

[5] = test system: T lymphocytes stimulated via CD3/PMA; assay: T lymphocyte proliferation (3H-thymidine), stimulation via CD3/PMA; format: cell-based; conditions: Homo sapiens, 72 h
Protocol: as §1
(§3) The PBMC fraction was further fractionated to give pure T lymphocytes. This was done using Lympho-KWIK-T, a mixture of monoclonal antibodies from anti-monocytes and anti-B cells and complement, together with a mixture of monoclonal anti-NK and anti-monocyte antibodies with Leu 11 b (anti-CD16, IgM) and Leu 7 (anti-CD57, IgM) (One Lambda Inc., Los Angeles, Calif., USA). The isolation and purification of the T lymphocytes from the PBMC fraction was effected by means of the following process steps:
(§4) Monocytes are removed by cold agglutination.
30×10^6 of the cells obtained are incubated with 0.8 ml of Lympho-KWIK-T for 1 hour at 37° C. […]
After 64 h of incubation the cells were treated in each case with 1 μCi of ^3H-thymidine; 8 h later they were collected on glass fiber filters and the incorporated radioactivity was measured in a β counter. […]

[6] = test system: T lymphocytes stimulated via CD28/PMA; assay: T lymphocyte proliferation (3H-thymidine), stimulation via CD28/PMA; format: cell-based, human
Protocol: as §1, §3, §4
30×10^6 of the cells obtained are incubated with 0.8 ml of Lympho-KWIK-T for 1 hour at 37° C.
The cells are washed three times and then incubated for 30 minutes at 4° C. with the mixture of monoclonal anti-NK and anti-monocyte antibodies.
The cells are washed once and re-incubated with 0.8 ml of Lympho-KWIK-T for 1 hour at 37° C.
After 64 h of incubation the cells were treated in each case with 1 μCi of ^3H-thymidine; 8 h later they were collected on glass fiber filters and the incorporated radioactivity was measured in a β counter.
The percentage inhibition of the T lymphocyte proliferation by the test substances was compared with a control not containing test substance, subtracting a basal value without monoclonal antibodies. The mean value from 4 parallel preparations was used for the evaluation.

SMILES	inhibition at 10 µM ([1]; Table 2, test substance alone, 10 μmol/l, read-out: percentage inhibition of the PHA-induced release of TNFα, test substance alone) [%]	psoriasis symptoms relative to the initial situation, in words [2]	inhibition at 0.1 µM ([1]; 0.1 μmol/l final concentration, PHA 5 μg/ml, 20 h) [%]	inhibition at 0.1 µM ([3]; read-out: IL-2 % inhibition, 0.1 μmol/l final concentration, PHA 5 μg/ml, 24 h) [%]	inhibition at 0.1 µM ([4]; 0.1 μmol/l final concentration) [%]	inhibition at 0.1 µM ([5]; 0.1 μmol/l) [%]	inhibition at 0.1 µM ([6]; Homo sapiens, T-lymphocyte, 0.1 μmol/l, T lymphocytes, 72 h) [%]	activity on T lymphocyte activation via the CD28-dependent mechanism, in words ([6]; single substance, stimulation via CD28)	inhibition at 50 µM ([1]; 50 μmol/l final concentration, PHA 5 μg/ml, 20 h, read-out: TNFα % inhibition) [%]	inhibition at 50 µM ([1]; Table 2, pentoxifylline alone, 50 μmol/l, read-out: percentage inhibition of the PHA-induced release of TNFα, pentoxifylline) [%]	inhibition at 50 µM ([3]; read-out: IL-2 % inhibition, 50 μmol/l final concentration, PHA 5 μg/ml, 24 h) [%]	inhibition at 50 µM ([4]; 50 μmol/l final concentration) [%]	inhibition at 40 µM ([5]; 40 μmol/l) [%]	inhibition at 40 µM ([6]; Homo sapiens, T-lymphocyte, 40 μmol/l, T lymphocytes, 72 h) [%]
COc1ccc([C@@H]2Sc3ccccc3N(CCN(C)C)C(=O)[C@@H]2OC(C)=O)cc1 [Diltiazem, diltiazem]	39 ± 13	practically no visible difference												
CCCC(=O)Nc1ncnc2c1ncn2[C@@H]1O[C@@H]2COP(=O)(O)O[C@H]2[C@H]1OC(=O)CCC [db-cAMP, dibutyryl-cAMP]			31 ± 13	12 ± 4	15 ± 8	16 ± 6	11 ± 6	practically inactive						
CC(=O)CCCCn1c(=O)c2c(ncn2C)n(C)c1=O [pentoxifylline]		improved only moderately							28 ± 10	28 ± 10	14 ± 9	20 ± 9	21 ± 7	28 ± 8
